Results: BigSolDB 2.1

O=[N+]([O-])N(CCO)CCO.O=[N+]([O-])O.O=[N+]([O-])O
solubility (mole fraction)
Conditions | in 1,2-dichloroethane | in 1,4-dioxane | in DMSO | in acetone | in acetonitrile | in dichloromethane | in ethanol | in ethyl acetate | in methanol | in toluene
283.15 K | 0.388 | 0.191 | 0.0407 | 0.234 | 0.182 | 0.0359 | 0.00314 | 0.131 | 0.00238 | 0.0112
288.15 K | 0.441 | 0.245 | 0.0506 | 0.26 | 0.258 | 0.0615 | 0.00518 | 0.17 | 0.00469 | 0.0143
293.15 K | 0.524 | 0.318 | 0.0633 | 0.321 | 0.314 | 0.109 | 0.00751 | 0.209 | 0.0076 | 0.0177
298.15 K | 0.587 | 0.371 | 0.0785 | 0.384 | 0.36 | 0.205 | 0.00986 | 0.285 | 0.0106 | 0.0252
303.15 K | 0.641 | 0.425 | 0.107 | 0.439 | 0.456 | 0.367 | 0.0118 | 0.31 | 0.0126 | 0.0276
308.15 K | 0.704 | 0.488 | 0.132 | 0.536 | 0.519 | 0.448 | 0.0131 | 0.334 | 0.0166 | 0.032
313.15 K | 0.787 | 0.562 | 0.163 | 0.645 | 0.558 | 0.515 | 0.0139 | 0.362 | 0.0207 | 0.0374
